Results from patent US20220142160A1, “METHOD OF INHIBITING OR REDUCING BIOFILM IN A PETROLEUM PRODUCTION PROCESS” (KEMIRA OYJ, priority 2019, published 2022).
Several values for one entry are separate records, joined by “and”; a condition that tells them apart may be missing. Equal entries are not always repeated.

Key:
Type in all cases: cell-based, mixed culture of oil field bacteria
biofilm biomass = test: Optical density measurements of biofilm biomass; details: data not shown
[1] = tested on: biofilm of mixed oilfield consortia; test: Quantification of formed biofilm, weight gain of glass slides; set-up: average weight gain of Slides A and B: unit: mg; details: for average weight gain of Slides A and B: day 6; for Slide B weight gain: slide removed day 6, scraped at 1 cm^2, then dried and weighed; for Slide A weight gain: slide removed day 6, dried and weighed without further manipulation
Procedure: (§1) A mixed culture of oil field bacteria with Sulphate Reducing Bacteria (SRB), Acid Producing Bacteria (APB), and General Heterotrophic Bacteria (GHB) that came from an oil field system and had been frozen in glycerol maintained at −80° C. was used to study the effect of the test chemical compounds on biofilm formation and control thereof.
(§2) Biofilm tests were performed in 3.5 weight-% nutrient brine (NB) solution with minimal nutrients and a mixture of dodecane isomers, which are customary in oil field production waters and storage tanks.
(§3) The oilfield bacteria consortia was inoculated into the 3.5 weight-% nutrient brine solution and allowed to acclimate overnight at 32° C. in bulk. After acclimation, the solution was divided into 250 mL Pyrex bottles to contain 200 mL of the inoculated 3.5 weight-% nutrient brine and 25 mL of dodecane. Biofilms were grown on glass slides as removable attachment surfaces. Bottles were incubated at 32° C. with a rotary shaking (75 rpm) providing medium flow in each container.
Two glass slides were added to each reactor bottle as described above and below and were removed at the end of the 6-day test for observation of biofilm accumulation, with the following considerations. For biofilm control experiments comprising biofilm removal from glass slides in 3.5% nutrient brine media inoculated with the mixed oilfield bacterial cultures and dodecane, biofilm was grown without addition of any test chemical compound to be tested in the control. In the reactors containing the test chemical compound, they were re-dosed daily for 5 days. A nitrogen blanket was added to each reactor after each dosing.
As described above, two glass slides were added to each reactor bottle. One was used for bacterial counts and the second was used to observe for biofilm accumulation. The second glass slide used to observe for growth was rinsed with deionized water, dried for 20 hours at 70° C., weighed and photographed. The weight values shown in the following tables are weights from 3 replicate reactor bottles. All weight values are given as actual measured values of the glass slides.
Table 3 presents results related to the effect on biofilm biomass of Compound A and AMA-324 dosing on the mixed oilfield consortia in 3.5 weight-% nutrient brine with dodecane at 32° C. and 75 rpm. Compound A was dosed daily for 5 days. AMA-324 was dosed at initial set-up only. Two glass slides were each weighed and added to each test container at set-up. After dosing for 5 days, at day 6, the slides were removed for analysis. Slide A was dried and weighed without further manipulation. Slide B was scrapped at 1 cm^2 with a sterile wooden stick into sterile phosphate buffer solution for bacterial counts. The scraped glass slide was then dried and weighed.

[2] = tested on: mixed oilfield bacterial consortia; test: Biocidal activity on mixed oilfield bacterial consortia (bacterial counts)
Procedure: as §1, §2, §3
(§4) Reactors each containing 200 mL of 3.5% nutrient brine were inoculated with the oilfield bacterial consortia and 25 mL of dodecane was treated with different amounts of the chemical compounds to be tested. A nitrogen blanket was added to the top of each reactor to minimize the oxygen content and allow a beneficial environment for anaerobic bacterial growth. […]

[3] = tested on: Sulphate Reducing Bacteria (SRB); test: Sessile bacterial counts from biofilm scraped off glass slides, SRB; details: slide scraped day 6, 3.5% nutrient brine with dodecane, 32° C., 75 rpm
Procedure: as §1, §2, §3, §4

[4] = tested on: Sulphate Reducing Bacteria (SRB); test: Bacterial growth control test, planktonic bacterial counts, SRB; details: 75 ppm AMA-324 (active ingredient), sampled day 6; 3.5% nutrient brine with dodecane, 32° C., 75 rpm
Procedure: as §1, §2, §3, §4

[5] = tested on: General Heterotrophic Bacteria (GHB); test: Bacterial growth control test, planktonic bacterial counts, GHB; details: 75 ppm AMA-324 (active ingredient), sampled day 6; 3.5% nutrient brine with dodecane, 32° C., 75 rpm
Procedure: as §1, §2, §3, §4

[6] = tested on: Acid Producing Bacteria (APB); test: Bacterial growth control test, planktonic bacterial counts, APB; details: 75 ppm AMA-324 (active ingredient), sampled day 6; 3.5% nutrient brine with dodecane, 32° C., 75 rpm
Procedure: as §1, §2, §3, §4

[7] = 2 ppm Compound A dosed daily for 5 days
[8] = 5 ppm Compound A dosed daily for 5 days
[9] = 75 ppm AMA-324 dosed at initial set-up only

Structure (SMILES) | amount of biofilm biomass by optical density measurements (biofilm biomass) | average weight gain of Slides A and B [1, 7] | Slide B weight gain [1, 7] | average weight gain of Slides A and B [1, 8] | Slide A weight gain [1, 8] | biofilm formation (weight of slides versus control or AMA-324) ([1]; Table 3 results, 1 to 5 ppm dosed daily for 5 days) | biocidal activity (bacterial counts as compared to the control) ([2]; dosage range of 1 ppm to 5 ppm, mixed oilfield bacterial consortia, anaerobic environment) | Sessile Bacterial Counts/mL SRB bacterial ([3]; 5.0 ppm Compound A dosed daily for 5 days) [Counts/mL] | Planktonic Bacterial Counts/mL SRB bacteria [4] [Counts/mL] | average weight gain of Slides A and B [1, 9] | Slide A weight gain [1, 9] | Slide B weight gain [1, 9] | Planktonic Bacterial Counts/mL GHB bacteria [5] [Counts/mL] | biocidal activity (bacterial counts as compared to the control) ([2]; dosage of 75 ppm active ingredient alone) | Planktonic Bacterial Counts/mL APB bacteria [6] [Counts/mL] | Sessile Bacterial Counts/mL SRB bacterial ([3]; 75 ppm AMA-324 (active ingredient)) [Counts/mL]
Cc1ccc(S(=O)(=O)C=CC#N)cc1 [Compound A, 3-[(4-methylphenyl)sulfonyl]-2-propenenitrile] | decreased the amount of biofilm biomass | 0.22 and 0.40 and 0.20 | 0.15 mg and 0.2 mg and 0.3 mg | 0.65 and 0.50 and 0.88 | 0.7 mg and 0.75 mg and 0.85 mg | very effectively reduced biofilm formation | did not act as a biocidal agent | 1.90E+07 |  |  |  |  |  |  |  | 
CN1CSC(=S)N(C)C1 [AMA-324, Tetrahydro-3,5-dimethyl-2H-1,3,5-thiadiazine-2-thione, reference compound] |  |  |  |  |  |  |  |  | <0.3 | 1.60 and 2.05 and 1.85 | 1.35 mg and 1.95 mg and 1.6 mg | 1.85 mg and 2.15 mg and 2.1 mg | <0.3 | acted as a biocide | <0.3 | <0.6
